From EP4678643A1, “KRAS INHIBITOR COMPOUND, PHARMACEUTICAL COMPOSITION THEREOF, AND USE THEREOF” (Sunshine Lake Pharma Co., Ltd., priority 2023, dated 2024)
Like-named read-outs stand apart in the source and are kept apart here.

How the values were obtained:
[1] = system: pERK in H358 cells (KRAS p.G12C); experiment: Inhibitory effect on intracellular pERK by In-Cell Western assay, H358; format: cell-based; conditions: Homo sapiens, NCI-H358, pERK inhibition, compound incubation 3 h
Description: (§1) 1. Determination of Inhibitory Effect on Intracellular pERK by In-Cell Western Assay
(§2) (1) On the first day, the following cells were revived and cultured with the corresponding culture medium and incubated at 37 °C, 5% CO2 until confluence.
(§3) (2) On the third day, the culture medium was removed, the cells were rinsed once with DPBS, 2 mL of TrypLE™ trypsin was added for digestion, and the cells were placed at room temperature until the cells detached. (3) 5 mL fresh culture medium was added to resuspend cells to terminate the digestion, and the cells were gently pipetted and centrifuged at 1000 rpm for 5 minutes at room temperature. (4) The supernatant was removed, and 5 mL fresh culture medium was added to resuspend the cells and count cells. (5) The cells were plated in a 384-well plate with appropriate cell concentration by adjusting with complete culture medium and incubated at 37 °C, 5% CO2 for overnight. (6) 200 nL of the prepared serial dilution compound (DMSO final concentration was 0.5%) was added and incubated at 37 °C, CO2 for 3 h (HPAC cell lines for 1 h). (7) The cells were fixed. (8) The cells were washed twice with PBS. (9) The blocking solution was added and the cells were incubated at room temperature for 1 h. (10) The blocking solution was removed, and the primary antibody (phospho-ERK Rabbit mAb + GAPDH (D4C6R) Mouse mAb) was added and the cells were incubated at 4 °C for overnight. (11) The cells were washed twice with PBST (PBS + 0.05% Tween 20) for 2 minutes each time. (12) PBST was removed and secondary antibody (IRDye 800CW Goat anti-Rabbit IgG (H+L) + IRDye 680RD Goat anti Mouse IgG (H+L)) was added and incubated away from light at room temperature. (14) Secondary antibody was discarded and the cell was washed twice with PBST, 2 minutes each time. (15) 384-well plate was inverted and centrifuged at 1000 rpm at room temperature for 1 minute, and the 384-well plate was scanned with Odyssey CLx. (16) Data analysis: • a) Assay stability check was peformed by using DMSO and reference control data: [formula] [formula] • b) nonlinear fitting of Compound IC50: Y = Bottom + (Top−Bottom)/(1+10^(∧)((LogIC50−X)×HillSlope)). [formula]

[2] = system: pERK in MKN1 cells (KRAS WTdep); experiment: Inhibitory effect on intracellular pERK by In-Cell Western assay, MKN1; format: cell-based; conditions: Homo sapiens, MKN-1, pERK inhibition, compound incubation 3 h
Description: as §1, §2, §3

[3] = system: pERK in HPAC cells (KRAS p.G12D); experiment: Inhibitory effect on intracellular pERK by In-Cell Western assay, HPAC; format: cell-based; conditions: Homo sapiens, pERK inhibition, compound incubation 1 h, read-out: HPAC, IC50 (nM) KRASp.G12D
Description: as §1, §2
as §3, with “[formula] • b) nonlinear fitting of Compound IC50: Y = Bottom + (Top−Bottom)/(1+10^(∧)((LogIC50−X)×HillSlope)). [formula]” left out

[4] = system: pERK in NCI-H727 cells (KRAS p.G12V); experiment: Inhibitory effect on intracellular pERK by In-Cell Western assay, NCI-H727; format: cell-based; conditions: Homo sapiens, pERK inhibition, compound incubation 3 h
Description: as §1, §2
as §3, with “[formula] • b) nonlinear fitting of Compound IC50: Y = Bottom + (Top−Bottom)/(1+10^(∧)((LogIC50−X)×HillSlope)). [formula]” left out

[5] = system: pERK in AGS cells (KRAS G12D); experiment: Inhibitory effect on intracellular pERK by In-Cell Western assay, AGS; format: cell-based; conditions: pERK inhibition, compound incubation 3 h, read-out: AGS, IC50 (nM) KRAS p.G12D
Description: as §1, §2
as §3, with “CLx.” for “CLx. (16) Data analysis: • a) Assay stability check was peformed by using DMSO and reference control data: [formula] [formula] • b) nonlinear fitting of Compound IC50: Y = Bottom + (Top−Bottom)/(1+10^(∧)((LogIC50−X)×HillSlope)). [formula]”

KRAS G12D-GTP & cRAF = KRAS G12D-GTP & cRAF (Homo sapiens, UniProt P01116, G12D); experiment: KRAS G12D/cRAF Binding Assay (HTRF); conditions: competitive binding, 665/615 nm ratio
Chain of KRAS G12D-GTP & cRAF (P01116 1-188 isoform P01116-2 G12D): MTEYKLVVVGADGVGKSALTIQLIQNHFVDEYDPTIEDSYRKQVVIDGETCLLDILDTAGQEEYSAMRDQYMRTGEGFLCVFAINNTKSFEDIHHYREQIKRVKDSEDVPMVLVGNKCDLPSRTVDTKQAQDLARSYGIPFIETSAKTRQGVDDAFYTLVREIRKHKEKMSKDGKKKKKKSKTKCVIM
Excerpt: 2. KRAS G12D/cRAF Binding Assay

KRAS G12D-GTP & SOS1 = KRAS G12D-GTP & SOS1 (Homo sapiens, UniProt P01116, G12D); experiment: KRAS G12D/SOS1 Binding Assay (HTRF); conditions: competitive binding, 665/615 nm ratio
Chain of KRAS G12D-GTP & SOS1 (P01116 1-188 isoform P01116-2 G12D): as above
Excerpt: 3. KRAS G12D/SOS1 Binding Assay

[6] = system: pERK in A549 cells (KRAS p.G12S); experiment: Inhibitory effect on intracellular pERK by In-Cell Western assay, A549; format: cell-based; conditions: Homo sapiens, pERK inhibition, compound incubation 3 h
Description: as §1, §2, §3

[7] = system: pERK in HCT 116 cells (KRAS p.G13D); experiment: Inhibitory effect on intracellular pERK by In-Cell Western assay, HCT 116; format: cell-based; conditions: Homo sapiens, pERK inhibition, compound incubation 3 h
Description: as §1, §2, §3

[8] = Pharmacokinetic evaluation by intravenous injection or oral gavage in mice
Description: (§4) Pharmacokinetic evaluation of the compounds of the present invention by intravenous injection or oral gavage in mice
(§5) The inventors conducted a pharmacokinetic evaluation of the compounds of this invention in mice.
(§6) The compounds of the present invention were administered to test animals in the form of a solution of 5% DMSO + 30% PEG400 + 65% saline, 10% DMSO + 10% Kolliphor HS15 + 80% Saline, 10% DMSO + 89% (25% SBE-B-CD) + (2% HCl), 20% PEG400 + 80% sterile water for injection, or 10% DMA + 10% HS15 + 30% PEG400 + 50% sterile water for injection. The animals were fasted for 12 hours before administration and had free access to water. For the intravenous administration group, the dose was 2 mg/kg/day, qd. Venous blood samples (approximately 0.15 mL) were collected at the following time points after administration: 0.083, 0.25, 0.5, 1.0, 2.0, 5.0, 7.0 and 24 hours. EDTA-K2 was pre-added to the blood collection tube as an anticoagulant. Blood samples were centrifuged at 12,000 rpm for 2 minutes, and plasma was collected and stored at -20°C or -70°C. For the intravenous administration group, the dose was 5 mg/kg/day, qd. Venous blood samples (approximately 0.15 mL) were collected at the following time points after administration: 0.25, 0.5, 1.0, 2.0, 5.0, 7.0 and 24 hours. EDTA-K2 was pre-added to the blood collection tube as an anticoagulant. Blood samples were centrifuged at 12,000 rpm for 2 minutes, and plasma was collected and stored at -20°C or -70°C.
(§7) The collected plasma samples were processed (frozen plasma was thawed at room temperature and vortexed for 15 seconds. 10-20 µL of plasma was added to 120-150 µL of acetonitrile solution containing the internal standard and vortexed for 5 minutes. The sample was centrifuged at 4,000 rpm for 5 minutes. 100 µL of the supernatant was added to 120-150 µL of methanol/water (v/v = 1/1) and mixed). The concentrations of the compounds in the plasma were analyzed by LC-MS/MS.

in vivo = conditions: mouse
Description: as §4, §5, §6, §7

| SMILES | IC50 [1] [nM] | IC50 [2] [nM] | IC50 ([5]; Homo sapiens, AGS, 3 h) [nM] | IC50 [6] [nM] | IC50 [7] [nM] | also measured |
| --- | --- | --- | --- | --- | --- | --- |
| CC#Cc1nc(-c2cc(O)cc3ccc(F)c(CC)c23)c(F)c2nc(OCC34CCCN3CC(F)C4)nc(N3CCCOCC3)c12 (centres unmarked) [Compound 2] | 2 | 6.4 | 2.2 |  |  | IC50 [3]: 1.6 nM; IC50 [4]: 4.8 nM; IC50 (KRAS G12D-GTP & cRAF): 13.7 nM; IC50 (KRAS G12D-GTP & SOS1): 20.8 nM |
| CCC#Cc1nc(-c2cc(O)cc3ccc(F)c(CC)c23)c(F)c2nc(OC[C@@]34CCCN3C[C@H](F)C4)nc(N3CCCOCC3)c12 [Compound 4] |  |  | 7.5 |  |  |  |
| C#Cc1c(F)ccc2cc(O)cc(-c3nc(C#CCOC4CCC4)c4c(N5CCCOCC5)nc(OC[C@@]56CCCN5C[C@H](F)C6)nc4c3F)c12 [Compound 5] |  |  | 8.6 |  |  |  |
| C#Cc1c(F)ccc2cc(O)cc(-c3nc(C#C)c4c(N5CCCOCC5)nc(OC[C@@]56CCCN5C[C@H](F)C6)nc4c3F)c12 [Compound 7] | 1.3 | 3.3 | 0.6 | 5.7 | 11.6 |  |
| C#Cc1nc(-c2cc(O)cc3ccc(F)c(CC)c23)c(F)c2nc(OC[C@@]34CCCN3C[C@H](F)C4)nc(N3CCCOCC3)c12 [Compound 8] |  |  | 7.1 |  |  |  |
| C#Cc1nc(-c2cc(O)cc3cccc(Cl)c23)c(F)c2nc(OC[C@@]34CCCN3C[C@H](F)C4)nc(N3CCCOCC3)c12 [Compound 9] |  |  | 17.2 |  |  |  |
| C#Cc1c(F)ccc2cc(O)cc(-c3nc(C#C)c4c(N5CCCOCC5)nc(OCC56CC(=C)CN5CC(=C)C6)nc4c3F)c12 [Compound 10] | 0.7 | 1.6 | 0.8 | 1.4 | 6.2 |  |
| C#Cc1c(F)ccc2cc(O)cc(-c3nc(C#CC)c4c(N5CCCOCC5)nc(OCC56CCCN5CCC6)nc4c3F)c12 [Compound 11] | 2 | 7.4 | 2.6 | 20.2 | 28.6 |  |
| C#Cc1c(F)ccc2cc(O)cc(-c3nc(C#CC)c4c(N5CCCOCC5)nc(OC[C@@H]5CCCN5C)nc4c3F)c12 [Compound 12] |  |  | 5.8 |  |  |  |
| C#Cc1c(F)ccc2cc(O)cc(-c3nc(C#CC)c4c(N5CCCOCC5)nc(OCC56CC(=C)CN5CC(=C)C6)nc4c3F)c12 [Compound 14] |  |  | 1.2 |  |  |  |
| C#Cc1c(F)ccc2cc(O)cc(-c3nc(C#CC)c4c(N5CCCOCC5)nc(OCC56CCCN5CC(F)(F)C6)nc4c3F)c12 (centres unmarked) [Compound 15] |  |  | 15 |  |  |  |
| C#Cc1c(F)ccc2cc(O)cc(-c3nc(C#CC)c4c(N5CCCOCC5)nc(OC[C@@H]5C[C@@H](F)CN5C)nc4c3F)c12 [Compound 16] |  |  | 8.1 |  |  |  |
| C#Cc1c(F)ccc2cc(O)cc(-c3nc(C#CC)c4c(N5CCCOCC5)nc(OCC56CCCN5CC(F)C6)nc4c3F)c12 (centres unmarked) [Compound 17] |  |  |  |  |  | IC50 [5]: 0.8 nM |
| C#Cc1c(F)ccc2cc(O)cc(-c3nc(C#CC)c4c(N5CCCOCC5)nc(OCC5(CN6CCOCC6)CC5)nc4c3F)c12 [Compound 19] |  |  | 6.4 |  |  |  |
| C#Cc1c(F)ccc2cc(N)cc(-c3nc(C#CC)c4c(N5CCCOCC5)nc(OC[C@@]56CCCN5C[C@H](F)C6)nc4c3F)c12 [Compound 22] |  |  | 2.8 |  |  |  |
| CC#Cc1nc(-c2cc(O)cc3cccc(Cl)c23)c(F)c2nc(OC[C@@]34CCCN3C[C@H](F)C4)nc(N3CCCOCC3)c12 [Compound 23] |  |  | 6.1 |  |  |  |
| CC#Cc1nc(-c2cc(O)cc3cccc(F)c23)c(F)c2nc(OC[C@@]34CCCN3C[C@H](F)C4)nc(N3CCCOCC3)c12 [Compound 24] |  |  |  |  |  | IC50 ([5]; Homo sapiens, AGS): 5.4 nM |
| C#Cc1c(F)ccc2cc(O)cc(-c3nc(C#CC)c4c(N5CCCCC(F)C5)nc(OC[C@@]56CCCN5C[C@H](F)C6)nc4c3F)c12 (some centres unmarked) [Compound 25] | 0.8 | 3 |  | 2.3 | 7.9 | IC50 ([5]; Homo sapiens, AGS): 0.8 nM; F_AUCT NF ([8]; mice, 5 mg/kg/day ig administration versus 2 mg/kg/day iv): 23%; AUC(0-inf) ([8]; mouse, plasma, iv, 2 mg/kg/day): 10800 ng·h/mL; AUC(0-t) ([8]; mouse, plasma, iv, 2 mg/kg/day): 10600 ng·h/mL; Cmax ([8]; mouse, plasma, iv, 2 mg/kg/day): 9950 ng/mL; MRT last ([8]; mouse, plasma, iv, 2 mg/kg/day): 1.3 h; Tmax ([8]; mouse, plasma, iv, 2 mg/kg/day): 0.083 h; clearance ([8]; mouse, plasma, iv, 2 mg/kg/day): 3.2 mL/min/kg; half-life ([8]; mouse, plasma, iv, 2 mg/kg/day): 1.2 h; AUC(0-inf) ([8]; mouse, plasma, po, 5 mg/kg/day): 6140 ng·h/mL; AUC(0-t) ([8]; mouse, plasma, po, 5 mg/kg/day): 5960 ng·h/mL; Cmax ([8]; mouse, plasma, po, 5 mg/kg/day): 2660 ng/mL; MRT last ([8]; mouse, plasma, po, 5 mg/kg/day): 1.7 h; Tmax ([8]; mouse, plasma, po, 5 mg/kg/day): 0.42 h; half-life ([8]; mouse, plasma, po, 5 mg/kg/day): 1.3 h; pharmacokinetic properties in mice ([8]; result in words): good pharmacokinetic properties |
| C#Cc1c(F)ccc2cc(O)cc(-c3nc(C#CCC)c4c(N5CCCCC(F)C5)nc(OC[C@@]56CCCN5C[C@H](F)C6)nc4c3F)c12 (some centres unmarked) [Compound 26] | 3.9 | 21.5 | 3.2 | 15.1 | 47.3 | AUC(0-inf) (in vivo; iv, 2 mg/kg/day): 8110 ng·h/mL; AUC(0-t) (in vivo; iv, 2 mg/kg/day): 8050 ng·h/mL; Cmax (in vivo; iv, 2 mg/kg/day): 8280 ng/mL; MRT last (in vivo; iv, 2 mg/kg/day): 1.2 h; Tmax (in vivo; iv, 2 mg/kg/day): 0.083 h; Vd (in vivo; iv, 2 mg/kg/day): 0.3 L/kg; clearance (in vivo; iv, 2 mg/kg/day): 4.1 mL/min/kg; half-life (in vivo; iv, 2 mg/kg/day): 1 h; AUC(0-inf) (in vivo; po, 5 mg/kg/day): 4240 ng·h/mL; AUC(0-t) (in vivo; po, 5 mg/kg/day): 4120 ng·h/mL; Cmax (in vivo; po, 5 mg/kg/day): 1630 ng/mL; MRT last (in vivo; po, 5 mg/kg/day): 1.8 h; Tmax (in vivo; po, 5 mg/kg/day): 0.5 h; half-life (in vivo; po, 5 mg/kg/day): 1.3 h |
| C#Cc1c(F)ccc2cc(O)cc(-c3nc(C#CC)c4c(N5CCCCC(F)(F)C5)nc(OC[C@@]56CCCN5C[C@H](F)C6)nc4c3F)c12 [Compound 27] | 2 | 4.5 | 5.2 | 5.1 | 19.5 |  |
| C#Cc1c(F)ccc2cc(O)cc(-c3nc(C#CC)c4c(N5CCCCCC5)nc(OC[C@@]56CCCN5C[C@H](F)C6)nc4c3F)c12 [Compound 29] | 2.2 | 3.6 | 1.4 | 6.2 | 15.2 |  |
| C#Cc1c(F)ccc2cc(O)cc(-c3nc(C#CCC)c4c(N5CCCCCC5)nc(OC[C@@]56CCCN5C[C@H](F)C6)nc4c3F)c12 [Compound 30] |  |  | 6.8 |  |  |  |
| CCC#Cc1nc(-c2cc(O)cc3ccc(F)c(CC)c23)c(F)c2nc(OC[C@@]34CCCN3C[C@H](F)C4)nc(N3CCCCC(=O)C3)c12 [Compound 33] |  |  | 4.1 |  |  |  |
| CC#Cc1nc(-c2cc(O)cc3ccc(F)c(CC)c23)c(F)c2nc(OCC34CCCN3CCC4)nc(N3CCCCC(=O)C3)c12 [Compound 35] |  |  | 4.4 |  |  |  |
| C#Cc1c(F)ccc2cc(O)cc(-c3nc(C#CC)c4c(N5CCOCC(F)(F)C5)nc(OC[C@@]56CCCN5C[C@H](F)C6)nc4c3F)c12 [Compound 38] | 0.4 | 1.41 | 1.6 | 1.2 | 5.4 |  |
